Patent US12162878B2 (HINOVA PHARMACEUTICALS INC., priority 2018, dated 2024)
Values joined by “and” are separate entries in the source; they are usually repeats but may differ in a detail not shown here. Identical values can stand only once.

Experiments:
BRDT(D1) = BRDT(D1) (Homo sapiens (Human), UniProt Q58F21); test: HTRF binding of compounds on BRDT (D1); details: read-out: IC50 against BRDT(D1)
Excerpt: (§1) Homogeneous time-resolved fluorescence technology (HTRF) was used to determine the binding effect of compounds on BRD4 (D1+D2) and BRDT (D1) proteins, as well as AlphaScreen method was used to detect the binding effect of compounds on BRD2 (D1+D2) and BRD3 (D1+D2) proteins.
(§2) The compounds were screened in vitro, and each compound was serially diluted to 10 concentrations. Four proteins BRD4 (D1+D2), BRDT (D1), BRD2 (D1+D2) and BRD3 (D1+D2) were chosen to determine the IC50 values of compounds (see Table 1).
(§3) 4. Compound treatment: The test compound was dissolved in dimethyl sulfoxide (DMSO), and the storage concentration was 10 mM.
(§4) 5. Steps for Homogeneous Time-Resolved Fluorescence Detection:
(§5) 1) According to the arrangement of the detection plate, all compounds were diluted in Echo plate.
(§6) The final dilution concentration of DMSO is 0.1%.
(§7) 2) The compound or DMSO was transferred to a 384-well detection plate with the Echo automatic sampler.
(§8) 3) Two-fold concentration of the mixture of protein and peptide was added to the detection plate.
(§9) 4) Two-fold concentration of mixed detection solution was added to the test plate, and shaken for 30 s.
(§10) 5) Incubating for 2 h at room temperature.
(§11) 6) Fluorescence signal was read on Envision multi-function microplate reader (excitation light wavelength being 340 nm, and emission light wavelength being 615 nm and 665 nm).
(§12) The experimental data were recorded in an Excel file, and equation (1) was used to obtain the inhibition rate. Inh%=(Max−Signal)/(Max−Min)*100 Equation (1):
(§13) The obtained data was recorded in GraphPad software, and equation (2) was used to provide the IC50 values. Y=Bottom+(Top−Bottom)/(1+10^((Log IC50−X)*Hill Slope)) Equation (2): […]
(§14) Y axis was the inhibition rate, and X axis was the compound concentration.

BRD4(1,2) = BRD4(1,2) (Homo sapiens (Human), UniProt O60885); test: HTRF binding of compounds on BRD4 (D1+D2); details: read-out: IC50 against BRD4(1,2)
Excerpt: as §1, §2, §3, §4, §5, §6, §7, §8, §9, §10, §11, §12, §13, §14

CWR22RV1 cells = test: Inhibition of proliferation of CWR22RV1 cells (CCK-8); type: cell-based, human; details: 6 days
How it was run: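 Cells seeded at 1500/well, cultured overnight, then exposed to compounds in 3-fold dilutions (9 concentrations from 10 μM top final, 0.1% DMSO) for 6 days at 37 °C. Viability read by CCK-8 absorbance at 450 nm after 2.5 h; IC50 from dose-response inhibition fit.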

BRD3(1,2) = BRD3(1,2) (Homo sapiens (Human), UniProt Q15059); test: AlphaScreen binding of compounds on BRD3 (D1+D2); details: read-out: IC50 against BRD3(1,2)
BRD3(1,2), sequence (Q15059 29-417): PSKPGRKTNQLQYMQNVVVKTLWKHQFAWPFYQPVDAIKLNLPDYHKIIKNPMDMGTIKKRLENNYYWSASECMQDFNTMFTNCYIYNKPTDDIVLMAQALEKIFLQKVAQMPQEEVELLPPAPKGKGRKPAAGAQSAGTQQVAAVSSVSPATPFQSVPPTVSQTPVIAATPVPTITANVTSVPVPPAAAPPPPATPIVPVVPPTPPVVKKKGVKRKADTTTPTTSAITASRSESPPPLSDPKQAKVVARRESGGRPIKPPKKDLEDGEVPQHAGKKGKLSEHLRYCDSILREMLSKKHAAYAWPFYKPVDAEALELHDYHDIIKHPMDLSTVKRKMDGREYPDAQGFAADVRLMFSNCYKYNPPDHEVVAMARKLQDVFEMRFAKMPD
Excerpt: as §1, §2, §3
(§15) 6. AlphaScreen Detection Procedures:
(§16) 1) Preparing One-Fold Concentration of Detection Buffer
(§17) One-fold concentration of detection buffer was prepared (Improved HEPES buffer)
(§18) 2) Gradient Dilution of Compounds
(§19) Echo automatic sampler was used to transfer the compound to the detection plate for gradient dilution, so that the final concentration of dimethyl sulfoxide was 0.1%.
(§20) 3) Preparation of Protein Solution
(§21) The protein was dissolved in one-fold concentration of detection buffer.
(§22) 4) Preparation of Substrate Solution
(§23) The peptide was dissolved in one-fold concentration of detection buffer to prepare the substrate solution.
(§24) 5) 5 μL protein solution was transferred to the detection plate, and one-fold concentration of detection buffer (5 μL) was placed in the negative control wells.
(§25) 6) The plate was incubated for 15 min at room temperature.
(§26) 7) 5 μL substrate solution was added to each well to start the reaction.
(§27) 8) The plate was incubated for additional 60 min at room temperature.
(§28) 9) Preparation of acceptor solution and donor solution in one-fold concentration of assay buffer Acceptor solution (15 μL) and donor solution (15 μL) were respectively added, and then incubated at room temperature for 60 min and protected against exposure to light.
(§29) 10) The endpoint was read in EnSpire and Alpha mode.
(§30) The experimental data were recorded in an Excel file and equation (1) was used to get the inhibition rate. Inh%=(Max−Signal)/(Max−Min)*100 Equation (1):
(§31) The obtained data were input into GraphPad software, and equation (2) was used to obtain the IC50 value. Y=Bottom+(Top−Bottom)/(1+10^((Log IC50−X)*Hill Slope)) Formula (2): […]
(§32) Wherein, Y axis was the inhibition rate, and the X axis was the compound concentration.

BRD2(1,2) = BRD2(1,2) (Homo sapiens (Human), UniProt P25440); test: AlphaScreen binding of compounds on BRD2 (D1+D2); details: read-out: IC50 against BRD2(1,2)
BRD2(1,2), sequence (P25440 65-459): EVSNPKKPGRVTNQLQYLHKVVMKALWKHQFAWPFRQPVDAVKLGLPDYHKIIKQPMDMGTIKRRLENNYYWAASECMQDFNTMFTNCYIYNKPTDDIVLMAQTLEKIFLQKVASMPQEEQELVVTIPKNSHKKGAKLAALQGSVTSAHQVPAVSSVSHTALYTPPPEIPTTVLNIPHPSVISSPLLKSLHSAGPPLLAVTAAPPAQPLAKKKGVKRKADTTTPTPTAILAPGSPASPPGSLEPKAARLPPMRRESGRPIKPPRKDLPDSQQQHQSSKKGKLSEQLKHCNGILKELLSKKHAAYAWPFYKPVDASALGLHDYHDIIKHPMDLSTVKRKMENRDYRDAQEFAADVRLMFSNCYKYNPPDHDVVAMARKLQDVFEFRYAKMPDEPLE
Excerpt: as §1, §2, §3, §15, §16, §17, §18, §19, §20, §21, §22, §23, §24, §25, §26, §27, §28, §29, §30, §31, §32

Row | Compound | IC50 (BRDT(D1)) | IC50 (BRD4(1,2)) | IC50 (BRD3(1,2)) | IC50 (BRD2(1,2)) | IC50 (CWR22RV1 cells; Homo sapiens, CWR22Rv1, 144 h) | IC50 (CWR22RV1 cells)
1 | [2H]C([2H])([2H])n1cc(-c2cc(S(C)(=O)=O)ccc2N2CCC3(CC2)CC3)c2cc[nH]c2c1=O [Compound 56, 6-trideuteromethyl-4-(5(methylsulfonyl)-2-(6-aza-spiro[2.5]octan-6-yl)phenyl)-1H-pyrrolo[2,3-c]pyridin-7(6H)-one] | 21 nM | 7.1 nM | 4.3 nM | 1.1 nM | 3 nM | 
2 | CCS(=O)(=O)Nc1ccc(N2CCC3(CC2)CC3(F)F)c(-c2cn(C)c(=O)c3[nH]ccc23)c1 [Compound 193, N-(4-(1,1-difluoro-6-aza-spiro[2.5]octan-6-yl)-3-(6-methyl-7-oxo-6,7-dihydro-1H-pyrrolo[2,3-c]pyridin-4-yl)phenyl)ethanesulfonamide] | 32 nM | 14 nM | 5.8 nM | 2.7 nM | 4 nM | 
3 | [2H]C([2H])([2H])n1cc(-c2cc(S(=O)(=O)NC)ccc2N2CCC3(CC2)CC3)c2cc[nH]c2c1=O [Compound 202, N-methyl-3-(6-trideuteromethyl-7-oxo-6,7-dihydro-1H-pyrrolo [2,3-c]pyridin-4-yl)-4-(6-aza-spiro[2.5]octan-6-yl)benzenesulfonamide] | 16 nM | 5.1 nM | 4.5 nM | 1.6 nM | 0.5 nM | 
4 | [2H]C([2H])([2H])n1cc(-c2cc(S(=O)(=O)N(C)C)ccc2N2CCC3(CC2)CC3(F)F)c2cc[nH]c2c1=O [Compound 204, 4-(1,1-difluoro-6-aza-spiro[2.5]octan-6-yl)-N,N-dimethyl-3-(6-trideuteromethyl-7-oxo-6,7-dihydro-1H-pyrrolo[2,3-c]pyridin-4-yl)benzenesulfonamide] | 19 nM | 10 nM | 7.4 nM | 6.5 nM | 0.7 nM | 
5 | [2H]C([2H])([2H])n1cc(-c2cc(S(=O)(=O)NC)cnc2N2CCC3(CC2)CC3(F)F)c2cc[nH]c2c1=O [Compound 212, 6-(1,1-difluoro-6-aza-spiro[2.5]octan-6-yl)-N-methyl-5-(6-trideuteromethyl-7-oxo-6,7-dihydro-1H-pyrrolo[2,3-c]pyridin-4-yl)pyridin-3-sulfonamide] | 13 nM | 4.3 nM | 4.6 nM | 1.7 nM |  | 
6 | [2H]C([2H])([2H])NS(=O)(=O)c1cnc(N2CCC3(CC2)CC3(F)F)c(-c2cn(C([2H])([2H])[2H])c(=O)c3[nH]ccc23)c1 [Compound 213, 6-(1,1-difluoro-6-aza-spiro[2.5]octan-6-yl)-N-trideuteromethyl-5-(6-trideuteromethyl-7-oxo-6,7-dihydro-1H-pyrrolo[2,3-c]pyridin-4-yl) pyridin-3-sulfonamide] | 15 nM | 4.1 nM | 4.4 nM | 1.6 nM |  | 
7 | [2H]C([2H])([2H])n1cc(-c2cc(S(=O)(=O)CC)cnc2N2CCC3(CC2)CC3(F)F)c2cc[nH]c2c1=O [Compound 215, 4-(2-(1,1-difluoro-6-aza-spiro[2.5]octan-6-yl)-5-(ethylsulfonyl)pyridin-3-yl)-6-trideuteromethyl-1H-pyrrolo[2,3-c]pyridin-7(6H)-one] | 16 nM | 5.3 nM | 5 nM | 2.9 nM |  | 
8 | [2H]C([2H])([2H])n1cc(-c2cc(S(N)(=O)=O)c(F)cc2N2CCC3(CC2)CC3(F)F)c2cc[nH]c2c1=O [Compound 217, 4-(1,1-difluoro-6-aza-spiro[2.5]octan-6-yl)-2-fluoro-5-(6-trideuteromethyl-7-oxo-6,7-dihydro-1H-pyrrolo[2,3-c]pyridin-4-yl)benzenesulfonamide] | 20 nM and 19 nM | 6.2 nM and 4.9 nM | 4.9 nM and 4.5 nM | 1.4 nM and 1.5 nM |  | 
9 | [2H]C([2H])([2H])n1cc(-c2cc(S(=O)(=O)C(C)(C)C(=O)O)ccc2N2CCC3(CC2)CC3(F)F)c2cc[nH]c2c1=O [Compound 239, 2-((4-(1,1-difluoro-6-aza-spiro[2.5]octan-6-yl)-3-(6-trideuteromethyl-7-oxo-6,7-dihydro-1H-pyrrolo[2,3-c]pyridin-4-yl)phenyl)sulfonyl)-2-methylpropionic acid] | 18 nM | 14 nM | 5.2 nM | 3 nM | 7.8 nM | 
10 | [2H]C([2H])([2H])n1cc(-c2cc(S(=O)(=O)N3CC[C@@H](O)C3)ccc2N2CCC3(CC2)CC3(F)F)c2cc[nH]c2c1=O [Compound 240, (R)-4-(2-(1,1-difluoro-6-aza-spiro[2.5]octan-6-yl)-5-((3-hydroxylpyrrolidin-1-yl)sulfonyl)phenyl)-6-trideuteromethyl-1H-pyrrolo[2,3-c]pyridin-7(6H)-one] | 21 nM | 6.4 nM | 4.3 nM | 1.2 nM | 4.8 nM | 

Continued, in another order:

Row | IC50 (BRDT(D1)) | IC50 (BRD4(1,2)) | IC50 (BRD3(1,2)) | IC50 (BRD2(1,2)) | Compound | IC50 (CWR22RV1 cells; Homo sapiens, CWR22Rv1, 144 h) | IC50 (CWR22RV1 cells)
11 | 17 nM | 5.8 nM | 4.1 nM | 1.2 nM | [2H]C([2H])([2H])n1cc(-c2cc(S(=O)(=O)N3CC[C@H](O)C3)ccc2N2CCC3(CC2)CC3(F)F)c2cc[nH]c2c1=O [Compound 241, (S)-4-(2-(1,1-difluoro-6-aza-spiro[2.5]octan-6-yl)-5-((3-hydroxylpyrrolidin-1-yl)sulfonyl)phenyl)-6-trideuteromethyl-1H-pyrrolo[2,3-c]pyridin-7(6H)-one] | 1.7 nM | 
12 | 19 nM | 9.9 nM | 5.3 nM | 1.5 nM | [2H]C([2H])([2H])n1cc(-c2cc(S(=O)(=O)N3CC[C@@H](O)C3)cnc2N2CCC3(CC2)CC3)c2cc[nH]c2c1=O [Compound 242] | 2.2 nM | 
13 | 19 nM | 8.9 nM | 5.3 nM | 1.4 nM | [2H]C([2H])([2H])n1cc(-c2cc(S(=O)(=O)N3CC[C@H](O)C3)cnc2N2CCC3(CC2)CC3)c2cc[nH]c2c1=O [Compound 243] | 1.3 nM | 
14 | 15 nM | 4.3 nM | 4.1 nM | 1.5 nM | [2H]C([2H])([2H])n1cc(-c2cc(S(=O)(=O)CC)ccc2N2CCC3(CC2)CC3(F)F)c2cc[nH]c2c1=O [Compound 250, 4-(2-(1,1-difluoro-6-aza-spiro[2.5]octan-6-yl)-5-(ethylsulfonyl)phenyl)-6-trideuteromethyl-1H-pyrrolo[2,3-c]pyridin-7(6H)-one] |  | 120 nM
15 | 13 nM | 3.4 nM | 3.9 nM | 1.2 nM | [2H]C([2H])([2H])n1cc(-c2cc(S(N)(=O)=O)ccc2N2CCC3(CC2)CC3(F)F)c2cc[nH]c2c1=O [Compound 251, 4-(1,1-difluoro-6-aza-spiro[2.5]octan-6-yl)-3-(6-trideuteromethyl-7-oxo-6,7-dihydro-1H-pyrrolo[2,3-c]pyridin-4-yl)benzenesulfonamide] |  | 
16 | 830 nM | 680 nM | 240 nM | 160 nM | [2H]C([2H])([2H])n1cc(-c2cc(S(=O)(=O)N3C[C@H](O)C[C@H]3C(=O)O)ccc2N2CCC3(CC2)CC3(F)F)c2cc[nH]c2c1=O [Compound 252, (2S,4R)-1-((4-(1,1-difluoro-6-aza-spiro[2.5]octan-6-yl)-3-(6-trideuteromethyl-7-oxo-6,7-dihydro-1H-pyrrolo[2,3-c]pyridin-4-yl)phenyl)sulfonyl)-4-hydroxylpyrrolidin-2-carboxylic acid] |  | 
